In patent publication US12576033B2, “Spray-dried formulation of a pyridazinone TRPC5 inhibitor” (GFB (ABC), LLC, priority 2019, dated 2026):

Experiments:
Assay type in all cases: physicochemical
[1] = MDSC thermal analysis (Tg)
Method: MDSC was performed using a TA Instruments Discovery DSC2500 differential scanning calorimeter equipped with a TA instruments Refrigerated Cooling System 90. MDSC was used to measure thermodynamic events and characteristics of Compound 1 API and subsequent SDIs. Events observed include the glass transition temperature (Tg), cold crystallization (Tc, defined as a crystallization event at a temperature lower than the melt temperature) and melting temperature (Tm). SDI samples were placed in non-hermetic aluminum pans and heated at a constant rate of 2.0° C./min over a 0-200° C. temperature range. The system was purged by nitrogen flow at 50 mL/min to ensure inert atmosphere through the course of measurement. […] The resulting amorphous API was analyzed by modulated DSC up to 265° C. […]
Thermal properties including melting temperature (Tm), glass transition temperature (Tg) and crystallization temperature (Tc) of Compound 1 crystalline Form H (anhydrous/solvate free) were measured by MDSC. […] The Tg was measured via a melt-quench technique, heating Compound 1 past its melting temperature and rapidly cooled in liquid nitrogen to trap the molten material in an amorphous state. The resulting sample was analyzed by MDSC and a Tg of 130° C. was observed (FIGS. 1A-B/Table 9) with no observed crystallization peaks or clear melting events in the subsequent amorphous ramp up to 275° C. […]

[2] = Visual solubility in common spray drying solvents
Method: Organic solubility of Compound 1 was determined visually in common spray drying solvents (Table 10) and Compound 1 lot AC5313-058P1 was utilized. […] When removed from heat API crashes out after 5 minutes. Solution (% w/w) was then prepared at 2.0% Compound 1 and heated to 40° C. where solids dissolved immediately. The 2.0% solution was then removed from heat where API appeared to crash out after ˜2 hours.

[3] = Two stage gastric transfer non-sink dissolution test (0.1N HCl/FaSSIF)
Method: In-vitro drug dissolution performance for each SDI is evaluated by Patheon's two stage ‘gastric transfer’ non-sink dissolution test (Table 8), which simulates pH and bile salt concentrations for both gastric and intestinal exposure in a simple to perform assay. Pre-weighed SDI powder is briefly suspended in media (e.g. by 10 sec vortex mixing with 4.0 mL media) and transferred to a pre-heated (37° C.) volume of 50 mL of 0.1N HCl(aq) (simulated gastric fluid or SGF, pH˜1.0, without pepsin or bile salts), in a USP Type 2 mini-vessel (100 mL total vessel volume) while stirring (paddles) at 100 rpm. After 30 minutes of gastric pH exposure, an equal volume of PBS buffered, 2× concentrated fasted-state simulated intestinal fluid (FaSSIF) is added to the SGF, resulting in a final pH of 6.8 in FaSSIF (100 mM PBS containing 2.24 mg/mL SIF powder (original) (Biorelevant Inc.) in a total volume of 100 mL. Aliquiots (1.0 mL) of dissolution media are taken at selected time-points before and after the simulated gastric transfer, spun-down (13000 rpm) to pellet out undissolved solids, and the supernatant sampled and further diluted in an appropriate diluent to determine API total drug concentration (e.g. free and colloidal/polymer-bound drug in solution) utilizing a suitable HPLC method. Additional centrifugation and filtration was performed using 10K molecular weight cutoff filters to remove polymer bound aggregates and colloids. The resulting filtrate of free drug consists of drug in solution and micelles. The volume of FaSSIF added is adjusted to account for the sampling volume removed prior to gastric transfer (typically 4×1.0 mL). Initial Compound 1 API measurements and SDI dissolution samples were determined utilizing HPLC.
The dissolution performance of the SDI material and crystalline Compound 1 was tested in Patheon's non-sink dissolution test (FIG. 6 and Table 15). The dissolution test is used to measure the supersaturation of drug above the bulk crystalline Compound 1 solubility in biorelevant intestinal media (FaSSIF) after 30 minutes exposure to a low-pH environment. […]

[4] = 60:40 DCM:Methanol, clear solution when heated to 40° C.
[5] = 80:20 DCM:Methanol, clear solution when heated to 40° C.
[6] = 90:10 DCM:Methanol, clear solution when heated to 40° C.

Tg ([1]; amorphous API by melt-quench, MDSC): 130 °C | Tm/Tg ratio ([1]; indicating moderate physical stability): 1.32 | Compound 1 Visual Solubility ([2]; 50:50 DCM:Methanol): >1.0 wt .% | Observation (visual solubility) ([2]; 50:50 DCM:Methanol): Insoluble | Compound 1 Visual Solubility [2, 4]: 2.0-3.0 wt .% | Observation (visual solubility) [2, 4]: Soluble^1 | Compound 1 Visual Solubility [2, 5]: 1.0-1.5 wt .% | Observation (visual solubility) [2, 5]: Soluble^1 | Compound 1 Visual Solubility [2, 6]: 1.0-1.5 wt .% | Observation (visual solubility) [2, 6]: Soluble^1 | Compound 1 Visual Solubility ([2]; 95:5 Acetone:Water): >1.0 wt .% | Observation (visual solubility) ([2]; 95:5 Acetone:Water): Insoluble | Compound 1 Visual Solubility ([2]; Acetone): >1.0 wt .% | Observation (visual solubility) ([2]; Acetone): Insoluble | Compound 1 Visual Solubility ([2]; Methanol): >1.0 wt .% | Observation (visual solubility) ([2]; Methanol): Insoluble | Compound 1 Visual Solubility ([2]; Methlyene Chloride (DCM)): >1.0 wt .% | Observation (visual solubility) ([2]; Methlyene Chloride (DCM)): Insoluble | Compound 1 Visual Solubility ([2]; Methyl Ethyl Ketone (MEK)): >1.0 wt .% | Observation (visual solubility) ([2]; Methyl Ethyl Ketone (MEK)): Insoluble | Compound 1 Visual Solubility ([2]; Tetrahydrofuran (THF)): >1.0 wt .% | Observation (visual solubility) ([2]; Tetrahydrofuran (THF)): Insoluble | maximum active loading in solution ([2]; heated (40° C.) 60:40 DCM:Methanol, % w/w): 2.0% | Total Drug AUC35-210 FaSSIF ([3]; area under the curve after transfer to FaSSIF from 35 to 210 minutes): 600 min * μgA/mL | Total Drug C210 ([3]; drug concentration at 180 minutes after transfer to FaSSIF): 3.5 μgA/mL | Increase in AUC over API AUC ([3]; non-sink dissolution, FaSSIF): 0.4
SMILES: O=c1[nH]ncc(N2CCc3c(ncnc3Oc3ccc(F)cc3C(F)(F)F)C2)c1Cl [Compound 1, 4-chloro-5-(4-(4-fluoro-2-(trifluoromethyl)phenoxy)-5,8-dihydropyrido[3,4-d]pyrimidin-7(6H)-yl)pyridazin-3(2H)-one]
